# Literature values, collected in patent publication US20240350489A1, “LOU064 FOR TREATING MULTIPLE SCLEROSIS” (NOVARTIS AG, priority 2021, published 2024).
# Entries after “also recorded” stand apart in the source; their conditions may differ. Like-named read-outs stand apart in the source and are kept apart here.
# Key:
# [1] = system: experimental autoimmune encephalomyelitis (EAE); details: cited from earlier work
# [2] = cited from earlier work
# [3] = cited from earlier work; remark: listed apart in the source
SMILES,efficacy in EAE ([1]; 3 mg/kg),efficacy in EAE ([1]; 10 mg/kg vs 3 mg/kg),"elevations of ALT, AST and lipase ([2]; 75 mg once daily and twice daily)",brain lesions and relapses ([2]; 75 mg once or twice per day vs placebo or dimethyl fumarate),"dose-limiting side effects ([3]; human, in vivo)",MS lesion development ([3]; mid-stage trials),most frequent adverse events ([3]; mid-stage trials)
C=CC(=O)N1CCC(CNc2ncnc(N)c2-c2ccc(Oc3ccccc3)cc2)CC1 [evobrutinib],effective,did not further improve the effect,dose-limiting liver enzyme elevations; also recorded: higher frequency of elevations,trend toward developing fewer brain lesions and experiencing fewer relapses,–,–,–
C=CC(=O)N1CCC[C@@H](n2c(=O)n(-c3ccc(Oc4ccccc4)cc3)c3c(N)nccc32)C1 [tolebrutinib],–,–,–,–,dose-limiting diarrhea,reduction in MS lesion development,headaches and cold-like symptoms
